Results reported in patent US10941152B2, “Pyrazole compounds as modulators of FSHR and uses thereof” (TOCOPHERX, INC., priority 2014, dated 2021).

Assays:
[1] = target: T1, FSHR (Homo sapiens, UniProt P23945); experiment: EC50 of cyclic AMP production in CHO FSHR cells + EC20 FSH (Assay A); format: cell-based; settings: cyclic AMP production in CHO FSHR cells + EC20 FSH (0.265 pM), HTRF
T1 construct: expressed in transfected cells; host or cells: CHO (Cho-FSHR-LUC-1-1-43)
T1 sequence (P23945 18-695): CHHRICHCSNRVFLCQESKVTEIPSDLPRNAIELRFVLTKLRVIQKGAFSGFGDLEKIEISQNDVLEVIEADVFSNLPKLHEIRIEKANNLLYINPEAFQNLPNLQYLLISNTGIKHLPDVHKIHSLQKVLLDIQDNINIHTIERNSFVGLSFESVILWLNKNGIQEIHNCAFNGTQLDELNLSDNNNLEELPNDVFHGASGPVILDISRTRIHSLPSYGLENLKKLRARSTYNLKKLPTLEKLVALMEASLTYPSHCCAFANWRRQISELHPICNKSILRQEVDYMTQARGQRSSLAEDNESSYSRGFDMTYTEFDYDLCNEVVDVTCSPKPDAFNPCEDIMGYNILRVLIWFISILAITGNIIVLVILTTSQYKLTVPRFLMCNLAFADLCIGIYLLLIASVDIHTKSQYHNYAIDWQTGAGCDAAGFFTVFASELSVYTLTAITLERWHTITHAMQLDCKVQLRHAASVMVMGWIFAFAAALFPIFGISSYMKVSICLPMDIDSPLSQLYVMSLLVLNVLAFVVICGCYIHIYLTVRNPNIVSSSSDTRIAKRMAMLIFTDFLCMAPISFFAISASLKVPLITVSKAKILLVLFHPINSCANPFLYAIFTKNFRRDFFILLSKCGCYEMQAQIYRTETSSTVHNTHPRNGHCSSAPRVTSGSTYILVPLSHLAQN
Procedure, shortened: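 cAMP was detected by HTRF as the 665/620 nm ratio. The CHO-FSHR cells had first been exposed for 1 h at 37° C to test compound together with 0.265 pM FSH (EC20) and 200 μM IBMX. Responses are given as percent of the FSH standard maximum.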

[2] = target: T2, follicle-stimulating hormone (FSH) receptor (Rattus norvegicus, UniProt P20395); experiment: Rat granulosa EC50 FSH (Assay B); format: cell-based
T2 construct: endogenous in cells; host or cells: rat granulosa cells
T2 sequence (P20395 18-692): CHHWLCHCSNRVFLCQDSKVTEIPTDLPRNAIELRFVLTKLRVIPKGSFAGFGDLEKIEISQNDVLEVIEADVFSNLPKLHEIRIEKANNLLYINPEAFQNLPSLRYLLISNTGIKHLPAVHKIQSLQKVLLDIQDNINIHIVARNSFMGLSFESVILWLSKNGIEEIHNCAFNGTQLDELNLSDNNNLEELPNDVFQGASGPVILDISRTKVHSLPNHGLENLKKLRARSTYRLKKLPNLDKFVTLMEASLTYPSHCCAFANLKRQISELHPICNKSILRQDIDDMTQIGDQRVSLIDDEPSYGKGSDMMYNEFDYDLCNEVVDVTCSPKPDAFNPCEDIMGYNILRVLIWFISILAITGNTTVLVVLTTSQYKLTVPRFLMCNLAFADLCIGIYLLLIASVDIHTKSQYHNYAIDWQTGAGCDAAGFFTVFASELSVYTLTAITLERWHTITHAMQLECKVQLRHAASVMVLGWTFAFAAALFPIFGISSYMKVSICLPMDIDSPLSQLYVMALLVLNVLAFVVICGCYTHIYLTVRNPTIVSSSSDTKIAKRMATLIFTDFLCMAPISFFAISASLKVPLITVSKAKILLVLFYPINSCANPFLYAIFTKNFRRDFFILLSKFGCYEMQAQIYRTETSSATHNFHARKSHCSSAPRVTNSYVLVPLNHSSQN
Procedure: Example 25. Rat granulosa EC50 FSH (Assay B)
The assay was performed pursuant to the teaching of Yanofsky et al. (2006) Allosteric activation of the follicle-stimulating hormone (FSH) receptor by selective, nonpeptide agonists (JBC 281(19): 13226-13233, which is incorporated by reference in the disclosure of the invention).

EC50 [1] | EC50 [2] | Compound
< 10 nM | 101 to 500 nM | COc1cc(C(N)=O)cc(-c2cc3c(cc2OC)OCc2c(C(=O)N(C)C(C)(C)C)nn(-c4cc(Cl)cc(Cl)c4)c2-3)n1 [Compound 115, N-tert-butyl-8-(4-carbamoyl-6-methoxypyridin-2-yl)-1-(3,5-dichlorophenyl)-7-methoxy-N-methyl-1,4-dihydrochromeno[4,3-c]pyrazole-3-carboxamide]
< 10 nM | 10 to 100 nM | COc1cc2c(cc1-c1cncc(C(N)=O)c1C)-c1c(c(C(=O)N(C)C(C)(C)C)nn1-c1cc(Cl)cc(Cl)c1)CO2 [Compound 116, N-tert-butyl-8-(5-carbamoyl-4-methylpyridin-3-yl)-1-(3,5-dichlorophenyl)-7-methoxy-N-methyl-1,4-dihydrochromeno[4,3-c]pyrazole-3-carboxamide]
< 10 nM | 10 to 100 nM | COc1cc(-c2cc3c(cc2OC)OCc2c(C(=O)N(C)C(C)(C)C)nn(-c4cc(Cl)cc(Cl)c4)c2-3)cc(C(N)=O)n1 [Compound 117, N-tert-butyl-8-(2-carbamoyl-6-methoxypyridin-4-yl)-1-(3,5-dichlorophenyl)-7-methoxy-N-methyl-1,4-dihydrochromeno[4,3-c]pyrazole-3-carboxamide]
< 10 nM | 10 to 100 nM | COc1cc2c(cc1-c1cncc(C(N)=O)c1C)-c1c(c(C(=O)N(C)C(C)(C)C#N)nn1-c1cc(Cl)cc(Cl)c1)CO2 [Compound 118, 8-(5-carbamoyl-4-methylpyridin-3-yl)-N-(2-cyanopropan-2-yl)-1-(3,5-dichlorophenyl)-7-methoxy-N-methyl-1,4-dihydrochromeno[4,3-c]pyrazole-3-carboxamide]
< 10 nM | 101 to 500 nM | COc1cc2c(cc1-c1cncc(C(N)=O)c1C)-c1c(c(C(=O)N(C)C(C)(C)C#N)nn1-c1cc(F)cc(F)c1)CO2 [Compound 119, 8-(5-carbamoyl-4-methylpyridin-3-yl)-N-(2-cyanopropan-2-yl)-1-(3,5-difluorophenyl)-7-methoxy-N-methyl-1,4-dihydrochromeno[4,3-c]pyrazole-3-carboxamide]
< 10 nM | 10 to 100 nM | COc1cc2c(cc1-c1cc(C(N)=O)ccn1)-c1c(c(C(=O)N(C)C(C)(C)C#N)nn1-c1cc(Cl)cc(Cl)c1)CO2 [Compound 120, 8-(4-carbamoylpyridin-2-yl)-N-(2-cyanopropan-2-yl)-1-(3,5-dichlorophenyl)-7-methoxy-N-methyl-1,4-dihydrochromeno[4,3-c]pyrazole-3-carboxamide]
10 to 100 nM | > 500 nM | COc1cc2c(cc1-c1ccn(C)n1)-c1c(c(C(=O)N(CCO)C(C)(C)C)nn1-c1ccsc1)CO2 [Compound 121, N-tert-butyl-N-(2-hydroxyethyl)-7-methoxy-8-(1-methyl-1H-pyrazol-3-yl)-1-(thiophen-3-yl)-1,4-dihydrochromeno[4,3-c]pyrazole-3-carboxamide]
10 to 100 nM | 101 to 500 nM | COc1cc2c(cc1-c1ccn(C)n1)-c1c(c(C(=O)N(CCO)C(C)(C)C)nn1-c1cc(Cl)cc(Cl)c1)CO2 [Compound 122, N-tert-butyl-1-(3,5-dichlorophenyl)-N-(2-hydroxyethyl)-7-methoxy-8-(1-methyl-1H-pyrazol-3-yl)-1,4-dihydrochromeno[4,3-c]pyrazole-3-carboxamide]
< 10 nM | 10 to 100 nM | COc1cc2c(cc1-c1cccnc1F)-c1c(c(C(=O)N(CCO)C(C)(C)C)nn1-c1cc(Cl)cc(Cl)c1)CO2 [Compound 123, N-tert-butyl-1-(3,5-dichlorophenyl)-8-(2-fluoropyridin-3-yl)-N-(2-hydroxyethyl)-7-methoxy-1,4-dihydrochromeno[4,3-c]pyrazole-3-carboxamide]
< 10 nM | 10 to 100 nM | COc1cc2c(cc1CC(C)C)-c1c(c(C(=O)N3CCC(=O)CC3(C)C)nn1-c1ccsc1)CO2 [Compound 125, 1-(8-isobutyl-7-methoxy-1-(thiophen-3-yl)-1,4-dihydrochromeno[4,3-c]pyrazole-3-carbonyl)-2,2-dimethylpiperidin-4-one]
10 to 100 nM | 101 to 500 nM | COCC1(CC(C)C)CCCN1C(=O)c1nn(-c2ccsc2)c2c1COc1cc(OC)c(-c3ccn(C)n3)cc1-2 (stereo not drawn) [Compound 127, (2-isobutyl-2-(methoxymethyl)pyrrolidin-1-yl)(7-methoxy-8-(1-methyl-1H-pyrazol-3-yl)-1-(thiophen-3-yl)-1,4-dihydrochromeno[4,3-c]pyrazole-3-yl)methanone]
10 to 100 nM | 101 to 500 nM | COc1cc2c(cc1-c1ccn(C)n1)-c1c(c(C(=O)N3C[C@H](O)[C@H](O)CC3(C)C)nn1-c1ccsc1)CO2 [Compound 130, ((4R,5S)-4,5-dihydroxy-2,2-dimethylpiperidin-1-yl)(7-methoxy-8-(1-methyl-1H-pyrazol-3-yl)-1-(thiophen-3-yl)-1,4-dihydrochromeno[4,3-c]pyrazol-3-yl)methanone]
10 to 100 nM | 10 to 100 nM | COCC1(CC(F)(F)F)CCCN1C(=O)c1nn(-c2ccsc2)c2c1COc1cc(OC)c(-c3ccn(C)n3)cc1-2 (stereo not drawn) [Compound 131, (7-methoxy-8-(1-methyl-1H-pyrazol-3-yl)-1-(thiophen-3-yl)-1,4-dihydrochromeno[4,3-c]pyrazol-3-yl)(2-(methoxymethyl)-2-(2,2,2-trifluoroethyl)pyrrolidin-1-yl)methanone]
10 to 100 nM | 101 to 500 nM | COc1cc2c(cc1-c1ccn(C)n1)-c1c(c(C(=O)N(C)C(C)(C)C#N)nn1-c1cc(Cl)cc(Cl)c1)CO2 [Compound 132, N-(2-cyanopropan-2-yl)-1-(3,5-dichlorophenyl)-7-methoxy-N-methyl-8-(1-methyl-1H-pyrazol-3-yl)-1,4-dihydrochromeno[4,3-c]pyrazole-3-carboxamide]
10 to 100 nM | > 500 nM | COc1cc(OC)cc(-n2nc(C(=O)N(C)C(C)(C)CCO)c3c2-c2cc(-c4ccn(C)n4)c(OC)cc2OC3)c1 [Compound 134, 1-(3,5-dimethoxyphenyl)-N-(4-hydroxy-2-methylbutan-2-yl)-7-methoxy-N-methyl-8-(1-methyl-1H-pyrazol-3-yl)-1,4-dihydrochromeno[4,3-c]pyrazole-3-carboxamide]
< 10 nM | 10 to 100 nM | COc1cc(OC)cc(-n2nc(C(=O)N(C)C(C)(C)CCO)c3c2-c2cc(-c4cccnc4F)c(OC)cc2OC3)c1 [Compound 135, 1-(3,5-dimethoxyphenyl)-8-(2-fluoropyridin-3-yl)-N-(4-hydroxy-2-methylbutan-2-yl)-7-methoxy-N-methyl-1,4-dihydrochromeno[4,3-c]pyrazole-3-carboxamide]
< 10 nM | 10 to 100 nM | COc1cc2c(cc1-c1c(C)nn(CC(=O)N(C)C)c1C)-c1c(c(C(=O)N(C)C(C)(C)C)nn1-c1cc(Cl)cc(Cl)c1)CO2 [Compound 136, N-tert-butyl-1-(3,5-dichlorophenyl)-8-(1-(2-(dimethylamino)-2-oxoethyl)-3,5-dimethyl-1H-pyrazol-4-yl)-7-methoxy-N-methyl-1,4-dihydrochromeno[4,3-c]pyrazole-3-carboxamide]
< 10 nM | 101 to 500 nM | COc1cc2c(cc1-c1c(C)nn(CC(=O)O)c1C)-c1c(c(C(=O)N(C)C(C)(C)C)nn1-c1cc(Cl)cc(Cl)c1)CO2 [Compound 137, 2-(4-(3-(tert-butyl(methyl)carbamoyl)-1-(3,5-dichlorophenyl)-7-methoxy-1,4-dihydrochromeno[4,3-c]pyrazol-8-yl)-3,5-dimethyl-1H-pyrazol-1-yl)acetic acid]
